Source: paper PMC9014410, “Discovery of V-0219: A Small-Molecule Positive Allosteric Modulator of the Glucagon-Like Peptide-1 Receptor toward Oral Treatment for “Diabesity”” (Journal of Medicinal Chemistry, 2022)

Molecular target: hGLP-1R (Homo sapiens, UniProt P43220)
Test: cAMP accumulation in HEK-293 cells expressing hGLP-1R (HEK-GLP-1 cells)
Format: cell-based
Details: HEK293, read-out: Potentiation of GLP-1 Emax at 10 ?M in a cAMP assay (%); 10 ?M compound (supplementary csv)
Protocol: After this time the culture medium was replaced by 20 μL fresh Opti-MEM containing 500 μM IBMX and 100 μM K579 and incubated with gentle stirring for 10 min at rt. […] Concentration-response curves were fitted to a 4-parameter logistic equation by using GraphPad Prism 2.1 software.

hGLP-1R, sequence (P43220 24-463): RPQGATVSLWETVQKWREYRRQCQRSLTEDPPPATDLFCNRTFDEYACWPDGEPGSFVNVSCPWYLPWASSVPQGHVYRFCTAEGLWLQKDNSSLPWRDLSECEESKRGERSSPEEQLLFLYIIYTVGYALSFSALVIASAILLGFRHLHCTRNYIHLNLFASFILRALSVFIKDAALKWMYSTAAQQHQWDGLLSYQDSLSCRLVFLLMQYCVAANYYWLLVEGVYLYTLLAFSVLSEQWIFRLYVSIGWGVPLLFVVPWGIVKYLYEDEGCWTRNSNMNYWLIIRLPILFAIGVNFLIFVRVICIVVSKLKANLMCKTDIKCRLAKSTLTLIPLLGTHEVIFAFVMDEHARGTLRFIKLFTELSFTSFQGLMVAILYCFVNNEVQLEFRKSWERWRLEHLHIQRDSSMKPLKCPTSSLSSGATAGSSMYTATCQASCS

| SMILES | Emax |
| --- | --- |
| O=S(=O)(NC1CCN(Cc2nc(-c3ccc(C(F)(F)F)cc3)no2)CC1)c1cccc(Cl)c1 [S10] | < 30% |
| O=C(NS(=O)(=O)c1cccc(Cl)c1)C1CCN(Cc2nc(-c3ccc(C(F)(F)F)cc3)no2)CC1 [S45] | < 30% |
| O=S(=O)(NC1CCN(Cc2nc(-c3ccc(C(F)(F)F)cc3)no2)CC1)c1ccc(C(F)(F)F)cc1 [S16] | < 30% |
| O=S(=O)(NCC1CCN(Cc2nc(-c3ccc(C(F)(F)F)cc3)no2)CC1)c1ccc(C(F)(F)F)cc1 [S35] | < 30% |
| O=C(NS(=O)(=O)c1ccc(OC(F)(F)F)cc1)C1CCN(Cc2nc(-c3ccc(C(F)(F)F)cc3)no2)CC1 [S50] | < 30% |
| O=C(NS(=O)(=O)c1ccccc1Cl)C1CCN(Cc2nc(-c3ccc(C(F)(F)F)cc3)no2)CC1 [S44] | < 30% |
| O=S(=O)(NCC1CCN(Cc2nc(-c3ccc(C(F)(F)F)cc3)no2)CC1)c1cccc(Cl)c1 [S29] | < 30% |
| Fc1ccc(-c2noc(CN3CCCC(CN4CCOCC4)C3)n2)cc1 (stereo not shown) [S78] | < 30% |
| Cc1ccccc1-c1noc(CN2CCCC(CN3CCOCC3)C2)n1 (stereo not shown) [S67] | < 30% |
| COc1ccccc1-c1noc(CN2CCCC(CN3CCOCC3)C2)n1 (stereo not shown) [S70] | < 30% |
| COc1ccc(-c2noc(CN3CCCC(CN4CCOCC4)C3)n2)cc1 (stereo not shown) [S72] | < 30% |
| CS(=O)(=O)NC(=O)CC1CCN(Cc2nc(-c3ccc(C(F)(F)F)cc3)no2)CC1 [S52] | < 30% |
| O=C(CC1CCN(Cc2nc(-c3ccc(C(F)(F)F)cc3)no2)CC1)NS(=O)(=O)c1ccc(Cl)cc1 [S59] | < 30% |
| N#Cc1ccccc1S(=O)(=O)NC1CCN(Cc2nc(-c3ccc(C(F)(F)F)cc3)no2)CC1 [S7] | < 30% |
| NC(=O)c1ccc(-c2noc(CN3CCCC(CN4CCOCC4)C3)n2)cc1 (stereo not shown) [S85] | < 30% |
| CCS(=O)(=O)NC(=O)C1CCN(Cc2nc(-c3ccc(C(F)(F)F)cc3)no2)CC1 [S37] | < 30% |
| O=S(=O)(Cc1ccccc1)NC1CCN(Cc2nc(-c3ccc(C(F)(F)F)cc3)no2)CC1 [S3] | < 30% |
| O=C(CC1CCN(Cc2nc(-c3ccc(C(F)(F)F)cc3)no2)CC1)NS(=O)(=O)Cc1ccccc1 [S54] | < 30% |
| N#Cc1cccc(S(=O)(=O)NCC2CCN(Cc3nc(-c4ccc(C(F)(F)F)cc4)no3)CC2)c1 [S26] | < 30% |
| CNc1ccccc1-c1noc(CN2CCCC(CN3CCOCC3)C2)n1 (stereo not shown) [S73] | < 30% |
| O=C(CC1CCN(Cc2nc(-c3ccc(C(F)(F)F)cc3)no2)CC1)NS(=O)(=O)c1ccc(OC(F)(F)F)cc1 [S63] | < 30% |

| SMILES | Emax |
| --- | --- |
| Clc1cccc(-c2noc(CN3CCCC(CN4CCOCC4)C3)n2)c1 (stereo not shown) [S80] | < 30% |
| Cc1cccc(-c2noc(CN3CCCC(CN4CCOCC4)C3)n2)c1 (stereo not shown) [S68] | < 30% |
| COC(=O)c1ccc(-c2noc(CN3CCCC(CN4CCOCC4)C3)n2)cc1 (stereo not shown) [S83] | < 30% |
| O=S(=O)(NC1CCN(Cc2nc(-c3ccc(C(F)(F)F)cc3)no2)CC1)c1ccc(F)cc1 [S14] | < 30% |
| O=S(=O)(NC1CCN(Cc2nc(-c3ccc(C(F)(F)F)cc3)no2)CC1)c1ccc(OC(F)(F)F)cc1 [S17] | < 30% |
| COc1ccc(S(=O)(=O)NC(=O)C2CCN(Cc3nc(-c4ccc(C(F)(F)F)cc4)no3)CC2)cc1 [S48] | < 30% |
| N#Cc1ccccc1S(=O)(=O)NCC1CCN(Cc2nc(-c3ccc(C(F)(F)F)cc3)no2)CC1 [S25] | < 30% |
| Cc1ccc([N+](=O)[O-])cc1S(=O)(=O)NC1CCN(Cc2nc(-c3ccc(C(F)(F)F)cc3)no2)CC1 [S19] | < 30% |
| COc1ccc(Br)cc1S(=O)(=O)NC(=O)C1CCN(Cc2nc(-c3ccc(C(F)(F)F)cc3)no2)CC1 [S51] | < 30% |
| O=[N+]([O-])c1ccc(S(=O)(=O)NC2CCN(Cc3nc(-c4ccc(C(F)(F)F)cc4)no3)CC2)cc1 [S6] | < 30% |
| FC(F)(F)c1ccccc1-c1noc(CN2CCCC(CN3CCOCC3)C2)n1 (stereo not shown) [S65] | < 30% |
| COc1ccc(Br)cc1S(=O)(=O)NC(=O)CC1CCN(Cc2nc(-c3ccc(C(F)(F)F)cc3)no2)CC1 [S64] | < 30% |
| O=C(NS(=O)(=O)c1cccc(F)c1)C1CCN(Cc2nc(-c3ccc(C(F)(F)F)cc3)no2)CC1 [S42] | < 30% |
| O=S(=O)(NC1CCN(Cc2nc(-c3ccc(C(F)(F)F)cc3)no2)CC1)c1ccc(Cl)cc1 [S11] | < 30% |
| NC(=O)c1cccc(-c2noc(CN3CCCC(CN4CCOCC4)C3)n2)c1 (stereo not shown) [S84] | < 30% |
| Cc1ccc(-c2noc(CN3CCCC(CN4CCOCC4)C3)n2)cc1 (stereo not shown) [S69] | < 30% |
| COc1ccc(S(=O)(=O)NC(=O)CC2CCN(Cc3nc(-c4ccc(C(F)(F)F)cc4)no3)CC2)cc1 [S61] | < 30% |
| CNc1ccc(-c2noc(CN3CCCC(CN4CCOCC4)C3)n2)cc1 (stereo not shown) [S75] | < 30% |
| CNC(=O)c1ccc(-c2noc(CN3CCCC(CN4CCOCC4)C3)n2)cc1 (stereo not shown) [S87] | < 30% |
| Cc1ccccc1S(=O)(=O)NC(=O)C1CCN(Cc2nc(-c3ccc(C(F)(F)F)cc3)no2)CC1 [S47] | < 30% |
| Clc1ccc(-c2noc(CN3CCCC(CN4CCOCC4)C3)n2)cc1 (stereo not shown) [S81] | < 30% |

| SMILES | Emax |
| --- | --- |
| CCCS(=O)(=O)NC1CCN(Cc2nc(-c3ccc(C(F)(F)F)cc3)no2)CC1 [S2] | < 30% |
| CNc1cccc(-c2noc(CN3CCCC(CN4CCOCC4)C3)n2)c1 (stereo not shown) [S74] | < 30% |
| Fc1ccccc1-c1noc(CN2CCCC(CN3CCOCC3)C2)n1 (stereo not shown) [S76] | < 30% |
| Cc1ccccc1S(=O)(=O)NCC1CCN(Cc2nc(-c3ccc(C(F)(F)F)cc3)no2)CC1 [S33] | < 30% |
| O=C(CC1CCN(Cc2nc(-c3ccc(C(F)(F)F)cc3)no2)CC1)NS(=O)(=O)c1cccc(Cl)c1 [S58] | < 30% |
| O=S(=O)(NCC1CCN(Cc2nc(-c3ccc(C(F)(F)F)cc3)no2)CC1)c1cccc(F)c1 [S31] | < 30% |
| O=C(NS(=O)(=O)c1ccccc1F)C1CCN(Cc2nc(-c3ccc(C(F)(F)F)cc3)no2)CC1 [S41] | < 30% |
| N#Cc1cccc(S(=O)(=O)NC2CCN(Cc3nc(-c4ccc(C(F)(F)F)cc4)no3)CC2)c1 [S8] | < 30% |
| CCCS(=O)(=O)NC(=O)CC1CCN(Cc2nc(-c3ccc(C(F)(F)F)cc3)no2)CC1 [S53] | < 30% |
| CS(=O)(=O)NC1CCN(Cc2nc(-c3ccc(C(F)(F)F)cc3)no2)CC1 [S1] | < 30% |
| O=[N+]([O-])c1ccccc1S(=O)(=O)NC1CCN(Cc2nc(-c3ccc(C(F)(F)F)cc3)no2)CC1 [S5] | < 30% |
| O=S(=O)(NCC1CCN(Cc2nc(-c3ccc(C(F)(F)F)cc3)no2)CC1)c1ccccc1Cl [S28] | < 30% |
| N#Cc1ccc(S(=O)(=O)NCC2CCN(Cc3nc(-c4ccc(C(F)(F)F)cc4)no3)CC2)cc1 [S27] | < 30% |
| O=C(CC1CCN(Cc2nc(-c3ccc(C(F)(F)F)cc3)no2)CC1)NS(=O)(=O)c1ccc(F)cc1 [S57] | < 30% |
| O=S(=O)(NC1CCN(Cc2nc(-c3ccc(C(F)(F)F)cc3)no2)CC1)c1cccc(F)c1 [S13] | < 30% |
| CC(=O)c1cccc(S(=O)(=O)NCC2CCN(Cc3nc(-c4ccc(C(F)(F)F)cc4)no3)CC2)c1 [S23] | < 30% |
| O=C(CC1CCN(Cc2nc(-c3ccc(C(F)(F)F)cc3)no2)CC1)NS(=O)(=O)c1ccc(C(F)(F)F)cc1 [S62] | < 30% |
| CC(=O)c1cccc(S(=O)(=O)NC(=O)C2CCN(Cc3nc(-c4ccc(C(F)(F)F)cc4)no3)CC2)c1 [S40] | < 30% |
| COc1ccc(Br)cc1S(=O)(=O)NC1CCN(Cc2nc(-c3ccc(C(F)(F)F)cc3)no2)CC1 [S18] | < 30% |
| O=S(=O)(NCC1CCN(Cc2nc(-c3ccc(C(F)(F)F)cc3)no2)CC1)c1ccc(Cl)cc1 [S30] | < 30% |
| O=C(NS(=O)(=O)c1ccc(C(F)(F)F)cc1)C1CCN(Cc2nc(-c3ccc(C(F)(F)F)cc3)no2)CC1 [S49] | < 30% |

| SMILES | Emax |
| --- | --- |
| O=S(=O)(NCC1CCN(Cc2nc(-c3ccc(C(F)(F)F)cc3)no2)CC1)c1ccc(F)cc1 [S32] | < 30% |
| Fc1cccc(-c2noc(CN3CCCC(CN4CCOCC4)C3)n2)c1 (stereo not shown) [S77] | < 30% |
| N#Cc1ccc(S(=O)(=O)NC2CCN(Cc3nc(-c4ccc(C(F)(F)F)cc4)no3)CC2)cc1 [S9] | < 30% |
| COc1ccc(S(=O)(=O)NCC2CCN(Cc3nc(-c4ccc(C(F)(F)F)cc4)no3)CC2)cc1 [S34] | < 30% |
| O=[N+]([O-])c1ccccc1S(=O)(=O)NCC1CCN(Cc2nc(-c3ccc(C(F)(F)F)cc3)no2)CC1 [S24] | < 30% |
| Cc1ccccc1S(=O)(=O)NC(=O)CC1CCN(Cc2nc(-c3ccc(C(F)(F)F)cc3)no2)CC1 [S60] | < 30% |
| CC(=O)c1cccc(S(=O)(=O)NC2CCN(Cc3nc(-c4ccc(C(F)(F)F)cc4)no3)CC2)c1 [S4] | < 30% |
| O=S(=O)(Cc1ccccc1)NCC1CCN(Cc2nc(-c3ccc(C(F)(F)F)cc3)no2)CC1 [S22] | < 30% |
| Cc1ccccc1S(=O)(=O)NC1CCN(Cc2nc(-c3ccc(C(F)(F)F)cc3)no2)CC1 [S15] | < 30% |
| O=C(NS(=O)(=O)Cc1ccccc1)C1CCN(Cc2nc(-c3ccc(C(F)(F)F)cc3)no2)CC1 [S39] | < 30% |
| O=C(NS(=O)(=O)c1ccc(F)cc1)C1CCN(Cc2nc(-c3ccc(C(F)(F)F)cc3)no2)CC1 [S43] | < 30% |
| CNC(=O)c1cccc(-c2noc(CN3CCCC(CN4CCOCC4)C3)n2)c1 (stereo not shown) [S86] | < 30% |
| O=C(CC1CCN(Cc2nc(-c3ccc(C(F)(F)F)cc3)no2)CC1)NS(=O)(=O)c1cccc(F)c1 [S56] | < 30% |
| Clc1ccccc1-c1noc(CN2CCCC(CN3CCOCC3)C2)n1 (stereo not shown) [S79] | < 30% |
| CCCS(=O)(=O)NCC1CCN(Cc2nc(-c3ccc(C(F)(F)F)cc3)no2)CC1 [S21] | < 30% |
| CC(=O)c1cccc(S(=O)(=O)NC(=O)CC2CCN(Cc3nc(-c4ccc(C(F)(F)F)cc4)no3)CC2)c1 [S55] | < 30% |
| COc1cccc(-c2noc(CN3CCCC(CN4CCOCC4)C3)n2)c1 (stereo not shown) [S71] | < 30% |
| CS(=O)(=O)NCC1CCN(Cc2nc(-c3ccc(C(F)(F)F)cc3)no2)CC1 [S20] | < 30% |
| O=S(=O)(NCC1CCN(Cc2nc(-c3ccc(C(F)(F)F)cc3)no2)CC1)c1ccc(OC(F)(F)F)cc1 [S36] | < 30% |
